The test addresses T1, Bcl-XL (Homo sapiens, UniProt Q07817).
T1 construct: gene BCL2L1; human Bcl-XL lacking the C-terminus domain (Δ209-233), 6His-tagged
Kind of test: NMR: […] SOFAST-HMQC titration, plus STD and WaterLOGSY. The format is binding.

SMILES strings stand for the structures.

Here are results for one compound from article PMC7598995, “HT-SuMD: making molecular dynamics simulations suitable for fragment-based screening. A comparative study with NMR” (Journal of Enzyme Inhibition and Medicinal Chemistry, 2020).

T1 sequence (Q07817 1-208): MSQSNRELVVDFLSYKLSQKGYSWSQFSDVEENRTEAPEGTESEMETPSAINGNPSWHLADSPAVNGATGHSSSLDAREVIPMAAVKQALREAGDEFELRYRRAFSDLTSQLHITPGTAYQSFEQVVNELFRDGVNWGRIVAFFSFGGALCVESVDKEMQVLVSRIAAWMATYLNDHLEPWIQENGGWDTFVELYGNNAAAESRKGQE

`Oc1ccccc1Cc1ccccc1` [compound 222, fragment 222]: the equilibrium dissociation constant (Kd) – broadly, a measure of binding affinity in units of concentration – is 1000 ± 400 µM.
